# Measurements: ChEMBL document CHEMBL2396526, “Chromenylchalcones showing cytotoxicity on human colon cancer cell lines and in silico docking with aurora kinases” (Bioorg Med Chem, 2013)
# Activity calls are given as the source filed them. The calls are words filed in the database; no cut-off is given here.
# Legend:
# HCT-116 [1] = test: Cell cycle arrest in human HCT116 cells assessed as accumulation at G1 phase at 20 uM after 12 hrs by propidium iodide staining-based flow cytometric analysis (reference value: 48.2%); format: functional
# HCT-116 [2] = test: Cell cycle arrest in human HCT116 cells assessed as accumulation at sub-G1 phase at 20 uM after 24 hrs by propidium iodide staining-based flow cytometric analysis (reference value: 2.9%); format: functional
# HCT-116 [3] = test: Cell cycle arrest in human HCT116 cells assessed as accumulation at G2/M phase at 20 uM after 48 hrs by propidium iodide staining-based flow cytometric analysis (reference value: 2.9%); format: functional
# HCT-116 [4] = test: Induction of apoptosis in human HCT116 cells assessed as late apoptotic cells at 20 uM after 24 hrs by annexin V-FITC/propidium iodide staining-based flow cytometric analysis (reference value: 5%); format: functional
# HCT-116 [5] = test: Induction of apoptosis in human HCT116 cells assessed as DNA content at G1 phase at 20 uM after 24 hrs by annexin V-FITC/propidium iodide staining-based flow cytometric analysis (reference value: 8%); format: functional
# HCT-116 [6] = test: Induction of apoptosis in human HCT116 cells assessed as viable cells at 20 uM after 24 hrs by annexin V-FITC/propidium iodide staining-based flow cytometric analysis (reference value: 71 %); format: functional; details: HCT-116, 24 h, read-out: Activity
# [7] = target: Aurora kinase B (Homo sapiens) (UniProt Q96GD4); test: Inhibition of human aurora-B; details: concentration not given here
# [8] = target: [Pyruvate dehydrogenase (acetyl-transferring)] kinase isozyme 1, mitochondrial (Homo sapiens) (UniProt Q15118); test: Inhibition of human PDK1
# HCT-116 [9] = test: Cell cycle arrest in human HCT116 cells assessed as accumulation at S phase at 20 uM after 48 hrs by propidium iodide staining-based flow cytometric analysis (reference value: 2.9%); format: functional
# HCT-116 [10] = test: Induction of apoptosis in human HCT116 cells assessed as appearance of cleaved caspase-7 at fragmented chromosomes at 20 uM after 24 hrs by Hoechst 33258 staining-based fluorescence microscopic analysis; format: functional, cell-based
# HCT-116 [11] = test: Cytotoxicity against human HCT116 cells assessed as decrease in cell viability at > 20 uM after 24 hrs by CCK8 assay; format: functional, cell-based
# HCT-116 [12] = test: Cell cycle arrest in human HCT116 cells assessed as accumulation at G2/M phase at 20 uM after 24 hrs by propidium iodide staining-based flow cytometric analysis (reference value: 2.9%); format: functional
# [13] = target: RAF proto-oncogene serine/threonine-protein kinase (Homo sapiens) (UniProt P04049); test: Inhibition of human c-RAF
# HCT-116 [14] = test: Induction of apoptosis in human HCT116 cells assessed as PARP cleavage at 20 uM after 24 to 48 hrs by Western blot analysis; format: functional, cell-based
# HCT-116 [15] = test: Cell cycle arrest in human HCT116 cells assessed as accumulation at G1 phase at 20 uM after 48 hrs by propidium iodide staining-based flow cytometric analysis (reference value: 2.9%); format: functional
# [16] = target: T1, Ephrin type-B receptor 3 (Homo sapiens) (UniProt P54753); test: Inhibition of human EphB
# T1 sequence (whole entry): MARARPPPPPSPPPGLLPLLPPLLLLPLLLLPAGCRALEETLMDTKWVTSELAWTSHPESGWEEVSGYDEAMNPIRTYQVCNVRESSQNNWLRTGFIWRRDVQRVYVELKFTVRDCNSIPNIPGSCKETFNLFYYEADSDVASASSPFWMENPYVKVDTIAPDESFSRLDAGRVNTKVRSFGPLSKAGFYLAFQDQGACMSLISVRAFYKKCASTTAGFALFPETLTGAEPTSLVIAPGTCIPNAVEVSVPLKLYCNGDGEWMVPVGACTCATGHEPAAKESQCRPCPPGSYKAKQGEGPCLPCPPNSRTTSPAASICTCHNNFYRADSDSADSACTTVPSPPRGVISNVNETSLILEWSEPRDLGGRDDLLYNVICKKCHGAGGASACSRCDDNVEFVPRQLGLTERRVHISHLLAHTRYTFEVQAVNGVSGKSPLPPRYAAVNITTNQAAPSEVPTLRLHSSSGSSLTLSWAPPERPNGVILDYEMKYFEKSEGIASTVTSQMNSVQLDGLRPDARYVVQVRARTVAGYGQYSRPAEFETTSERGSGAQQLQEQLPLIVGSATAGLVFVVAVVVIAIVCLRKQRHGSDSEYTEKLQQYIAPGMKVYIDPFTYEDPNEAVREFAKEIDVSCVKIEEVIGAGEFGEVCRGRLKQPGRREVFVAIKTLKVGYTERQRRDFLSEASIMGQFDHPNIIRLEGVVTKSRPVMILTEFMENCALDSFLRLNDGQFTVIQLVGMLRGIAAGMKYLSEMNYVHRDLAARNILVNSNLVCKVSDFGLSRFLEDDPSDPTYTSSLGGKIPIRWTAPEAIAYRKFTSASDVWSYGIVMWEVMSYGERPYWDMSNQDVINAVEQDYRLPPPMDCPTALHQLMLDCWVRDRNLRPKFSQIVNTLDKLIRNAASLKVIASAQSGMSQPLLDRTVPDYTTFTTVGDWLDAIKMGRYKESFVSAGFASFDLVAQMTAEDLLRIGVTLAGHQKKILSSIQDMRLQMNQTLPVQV
# HCT-116 [17] = test: Cell cycle arrest in human HCT116 cells assessed as accumulation at sub-G1 phase at 20 uM after 48 hrs by propidium iodide staining-based flow cytometric analysis (reference value: 2.9%); format: functional
# HCT-116 [18] = test: Cytotoxicity against human HCT116 cells assessed as cell survival at 0.5 to 5 uM after 7 days by crystal violet staining assay; format: functional, cell-based; details: HCT-116, 168 h
# HCT-116 [19] = test: Cell cycle arrest in human HCT116 cells assessed as accumulation at G2/M phase at 20 uM after 12 hrs by propidium iodide staining-based flow cytometric analysis (reference value: 20.8%); format: functional
# [20] = target: T2, Aurora kinase A (Homo sapiens) (UniProt O14965); test: Inhibition of human aurora-A; details: concentration not given here
# T2 sequence (whole entry): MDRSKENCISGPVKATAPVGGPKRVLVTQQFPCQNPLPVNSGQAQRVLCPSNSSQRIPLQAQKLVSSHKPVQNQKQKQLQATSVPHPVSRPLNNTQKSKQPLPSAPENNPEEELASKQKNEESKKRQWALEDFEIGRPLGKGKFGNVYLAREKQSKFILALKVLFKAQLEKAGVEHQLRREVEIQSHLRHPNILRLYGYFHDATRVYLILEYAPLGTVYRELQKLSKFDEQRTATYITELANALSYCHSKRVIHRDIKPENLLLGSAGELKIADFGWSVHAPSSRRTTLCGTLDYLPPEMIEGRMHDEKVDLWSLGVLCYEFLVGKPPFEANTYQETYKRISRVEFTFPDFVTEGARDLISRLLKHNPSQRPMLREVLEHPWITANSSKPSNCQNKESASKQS
# [21] = target: Vascular endothelial growth factor receptor 2 (Homo sapiens) (UniProt P35968); test: Inhibition of human KDR
# Homo sapiens = organism: Homo sapiens; test: Inhibition of human Rsk
# HCT-116 [22] = test: Induction of apoptosis in human HCT116 cells assessed as early apoptotic cells at 20 uM after 24 hrs by annexin V-FITC/propidium iodide staining-based flow cytometric analysis (reference value: 22%); format: functional
# RAF proto-oncogene serine/threonine-protein kinase (Homo sapiens), sequence (P04049 whole entry): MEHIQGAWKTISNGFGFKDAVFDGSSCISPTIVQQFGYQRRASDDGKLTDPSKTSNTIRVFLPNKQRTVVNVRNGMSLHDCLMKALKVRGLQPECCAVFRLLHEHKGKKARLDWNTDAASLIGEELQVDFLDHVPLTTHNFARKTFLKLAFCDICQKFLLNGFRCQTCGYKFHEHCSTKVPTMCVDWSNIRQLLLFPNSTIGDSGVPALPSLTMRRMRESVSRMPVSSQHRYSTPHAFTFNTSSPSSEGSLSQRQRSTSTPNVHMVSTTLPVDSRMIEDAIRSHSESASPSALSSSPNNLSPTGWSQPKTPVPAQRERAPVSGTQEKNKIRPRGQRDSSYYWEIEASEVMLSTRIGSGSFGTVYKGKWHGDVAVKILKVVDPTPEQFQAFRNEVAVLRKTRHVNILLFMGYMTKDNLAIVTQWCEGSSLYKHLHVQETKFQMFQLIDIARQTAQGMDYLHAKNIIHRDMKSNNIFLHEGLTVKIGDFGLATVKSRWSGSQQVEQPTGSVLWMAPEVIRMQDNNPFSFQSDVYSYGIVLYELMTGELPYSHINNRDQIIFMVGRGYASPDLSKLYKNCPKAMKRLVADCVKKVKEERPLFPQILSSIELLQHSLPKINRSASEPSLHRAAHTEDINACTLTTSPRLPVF
# Vascular endothelial growth factor receptor 2 (Homo sapiens), sequence (P35968 whole entry): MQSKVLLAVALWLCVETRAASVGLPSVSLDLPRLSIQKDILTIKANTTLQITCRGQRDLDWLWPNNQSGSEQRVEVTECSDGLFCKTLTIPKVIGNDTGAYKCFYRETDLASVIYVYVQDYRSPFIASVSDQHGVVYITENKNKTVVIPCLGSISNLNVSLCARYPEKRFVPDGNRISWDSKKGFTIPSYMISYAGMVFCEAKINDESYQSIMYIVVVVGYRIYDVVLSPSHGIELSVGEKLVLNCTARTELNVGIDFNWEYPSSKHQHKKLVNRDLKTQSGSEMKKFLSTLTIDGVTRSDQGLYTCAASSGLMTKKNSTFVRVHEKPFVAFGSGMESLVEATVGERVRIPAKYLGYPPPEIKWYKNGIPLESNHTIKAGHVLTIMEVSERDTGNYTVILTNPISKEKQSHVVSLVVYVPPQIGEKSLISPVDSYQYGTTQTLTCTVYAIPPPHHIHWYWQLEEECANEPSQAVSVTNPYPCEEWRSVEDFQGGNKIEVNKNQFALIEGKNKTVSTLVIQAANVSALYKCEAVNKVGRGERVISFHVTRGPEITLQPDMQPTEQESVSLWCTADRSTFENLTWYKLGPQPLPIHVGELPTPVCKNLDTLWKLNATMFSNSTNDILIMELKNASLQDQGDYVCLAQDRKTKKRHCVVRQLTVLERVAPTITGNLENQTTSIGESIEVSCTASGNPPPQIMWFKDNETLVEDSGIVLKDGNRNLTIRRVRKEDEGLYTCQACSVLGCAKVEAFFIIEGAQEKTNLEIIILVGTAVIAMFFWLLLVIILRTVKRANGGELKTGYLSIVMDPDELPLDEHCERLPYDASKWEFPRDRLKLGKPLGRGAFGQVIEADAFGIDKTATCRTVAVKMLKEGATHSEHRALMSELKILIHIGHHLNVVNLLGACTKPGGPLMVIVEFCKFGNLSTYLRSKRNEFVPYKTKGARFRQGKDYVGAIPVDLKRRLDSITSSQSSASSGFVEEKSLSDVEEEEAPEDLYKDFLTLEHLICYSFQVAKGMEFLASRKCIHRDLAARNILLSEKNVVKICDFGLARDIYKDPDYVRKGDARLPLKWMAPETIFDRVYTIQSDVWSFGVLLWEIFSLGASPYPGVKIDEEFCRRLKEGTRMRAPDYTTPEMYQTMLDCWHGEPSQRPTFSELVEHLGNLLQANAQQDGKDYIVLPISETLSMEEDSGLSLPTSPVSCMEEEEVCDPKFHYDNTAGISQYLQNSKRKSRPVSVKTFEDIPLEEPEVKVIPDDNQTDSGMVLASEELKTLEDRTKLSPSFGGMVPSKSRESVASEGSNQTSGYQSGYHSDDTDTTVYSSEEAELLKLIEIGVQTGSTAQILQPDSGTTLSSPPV
# Aurora kinase B (Homo sapiens), sequence (Q96GD4 whole entry): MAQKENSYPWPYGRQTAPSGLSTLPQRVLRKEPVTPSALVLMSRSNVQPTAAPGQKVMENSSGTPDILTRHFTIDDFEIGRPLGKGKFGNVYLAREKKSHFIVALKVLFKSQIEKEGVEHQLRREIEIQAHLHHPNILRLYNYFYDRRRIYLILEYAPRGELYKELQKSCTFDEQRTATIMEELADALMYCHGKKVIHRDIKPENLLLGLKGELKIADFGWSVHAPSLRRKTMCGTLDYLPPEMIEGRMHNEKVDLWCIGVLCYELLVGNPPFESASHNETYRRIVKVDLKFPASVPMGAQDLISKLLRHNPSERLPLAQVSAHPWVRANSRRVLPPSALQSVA
smiles,measurement,setting,value
COc1ccc2c(c1)C=C(C(=O)/C=C/c1c(OC)cc(OC)cc1OC)CO2,Activity,HCT-116 [1],18.9%
same,Activity,HCT-116 [2],35.3%
same,Activity,HCT-116 [3],8.4%
same,Activity,HCT-116 [4],14%
same,Activity,HCT-116 [5],99%
same,viability at 20 µM,HCT-116 [6],0%
same,inhibition,[7],65%
same,inhibition,[8],inactive
same,Activity,HCT-116 [9],13.2%
same,Activity,HCT-116 [10],Active
same,Activity,HCT-116 [11],Active
same,Activity,HCT-116 [12],21.5%
same,inhibition,[13],inactive
same,Activity,HCT-116 [14],Active
same,Activity,HCT-116 [15],29.5%
same,inhibition,[16],inactive
same,Activity,HCT-116 [17],45.3%
same,IC50,HCT-116 [18],96.7 nM
same,Activity,HCT-116 [19],44.2%
same,inhibition,[20],69%
same,inhibition,[21],inactive
same,inhibition,Homo sapiens,inactive
same,Activity,HCT-116 [22],86%
